Data taken from the supplement of paper PMC11665569.

How the values were obtained:
[1] = tested on: KYSE410; assay: relative viability (fraction of vehicle control); higher = more viable / less inhibited; details: treatment time: 5 days
Procedure: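 CCK-8 viability of KYSE410 cells transfected with control, YAP/TAZ or TEAD1-4 siRNAs and treated with KRAS G12C inhibitors for 5 days. Values are normalised to vehicle control.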

[2] = tested on: H358; assay: as above; details: treatment time: 5 days
Procedure: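 CCK-8 viability of H358 cells with empty vector or constitutively active YAP S127A, treated with KRAS G12C inhibitors for 5 days. Absorbance at 450 nm normalised to vehicle control.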

C=CC(=O)N1CCN(c2ncnc3c(F)c(-c4c(O)cccc4F)c(Cl)cc23)CC1 [ARS1620]
Details	relative viability
[1], log10 concentration (uM): 0, siRNA knockdown: TEAD1-4 siRNA 1	0.606
[1], log10 concentration (uM): 0, siRNA knockdown: TEAD1-4 siRNA 2	0.433
[1], log10 concentration (uM): 0, siRNA knockdown: YAP/TAZ siRNA 1	0.792
[1], log10 concentration (uM): 0, siRNA knockdown: YAP/TAZ siRNA 2	0.59
[1], log10 concentration (uM): 0, siRNA knockdown: negative control siRNA	0.869
[1], log10 concentration (uM): 0.39794, siRNA knockdown: TEAD1-4 siRNA 1	0.338
[1], log10 concentration (uM): 0.39794, siRNA knockdown: TEAD1-4 siRNA 2	0.315
[1], log10 concentration (uM): 0.39794, siRNA knockdown: YAP/TAZ siRNA 1	0.438
[1], log10 concentration (uM): 0.39794, siRNA knockdown: YAP/TAZ siRNA 2	0.428
[1], log10 concentration (uM): 0.39794, siRNA knockdown: negative control siRNA	0.754
[1], log10 concentration (uM): 0.69897, siRNA knockdown: TEAD1-4 siRNA 1	0.25
[1], log10 concentration (uM): 0.69897, siRNA knockdown: TEAD1-4 siRNA 2	0.194
[1], log10 concentration (uM): 0.69897, siRNA knockdown: YAP/TAZ siRNA 1	0.3
[1], log10 concentration (uM): 0.69897, siRNA knockdown: YAP/TAZ siRNA 2	0.288
[1], log10 concentration (uM): 0.69897, siRNA knockdown: negative control siRNA	0.556
[1], log10 concentration (uM): 1, siRNA knockdown: TEAD1-4 siRNA 1	0.106
[1], log10 concentration (uM): 1, siRNA knockdown: TEAD1-4 siRNA 2	0.0618
[1], log10 concentration (uM): 1, siRNA knockdown: YAP/TAZ siRNA 1	0.123
[1], log10 concentration (uM): 1, siRNA knockdown: YAP/TAZ siRNA 2	0.104
[1], log10 concentration (uM): 1, siRNA knockdown: negative control siRNA	0.198
[1], log10 concentration (uM): 1.301029996, siRNA knockdown: TEAD1-4 siRNA 1	0.0328
[1], log10 concentration (uM): 1.301029996, siRNA knockdown: TEAD1-4 siRNA 2	0.0272
[1], log10 concentration (uM): 1.301029996, siRNA knockdown: YAP/TAZ siRNA 1	0.0271
[1], log10 concentration (uM): 1.301029996, siRNA knockdown: YAP/TAZ siRNA 2	0.0298
[1], log10 concentration (uM): 1.301029996, siRNA knockdown: negative control siRNA	0.0407
[1], log10 concentration (uM): -0.30103, siRNA knockdown: TEAD1-4 siRNA 1	0.826
[1], log10 concentration (uM): -0.30103, siRNA knockdown: TEAD1-4 siRNA 2	0.769
[1], log10 concentration (uM): -0.30103, siRNA knockdown: YAP/TAZ siRNA 1	0.897
[1], log10 concentration (uM): -0.30103, siRNA knockdown: YAP/TAZ siRNA 2	0.7891
[1], log10 concentration (uM): -0.30103, siRNA knockdown: negative control siRNA	0.938
[1], log10 concentration (uM): -0.60206, siRNA knockdown: TEAD1-4 siRNA 1	0.943
[1], log10 concentration (uM): -0.60206, siRNA knockdown: TEAD1-4 siRNA 2	0.725
[1], log10 concentration (uM): -0.60206, siRNA knockdown: YAP/TAZ siRNA 1	0.964
[1], log10 concentration (uM): -0.60206, siRNA knockdown: YAP/TAZ siRNA 2	0.86
[1], log10 concentration (uM): -0.60206, siRNA knockdown: negative control siRNA	0.916
[1], log10 concentration (uM): -1, siRNA knockdown: TEAD1-4 siRNA 1	0.909
[1], log10 concentration (uM): -1, siRNA knockdown: TEAD1-4 siRNA 2	0.779
[1], log10 concentration (uM): -1, siRNA knockdown: YAP/TAZ siRNA 1	0.959
[1], log10 concentration (uM): -1, siRNA knockdown: YAP/TAZ siRNA 2	0.883
[1], log10 concentration (uM): -1, siRNA knockdown: negative control siRNA	0.976
[1], log10 concentration (uM): -2, siRNA knockdown: TEAD1-4 siRNA 1	0.981
[1], log10 concentration (uM): -2, siRNA knockdown: TEAD1-4 siRNA 2	0.876
[1], log10 concentration (uM): -2, siRNA knockdown: YAP/TAZ siRNA 1	0.988
[1], log10 concentration (uM): -2, siRNA knockdown: YAP/TAZ siRNA 2	0.996
[1], log10 concentration (uM): -2, siRNA knockdown: negative control siRNA	0.9803
[2], log10 concentration (uM): 0, ectopic expression: YAP S127A	0.842
[2], log10 concentration (uM): 0, ectopic expression: empty vector (YAP experiment)	0.6
[2], log10 concentration (uM): 0.39794, ectopic expression: YAP S127A	0.833
[2], log10 concentration (uM): 0.39794, ectopic expression: empty vector (YAP experiment)	0.389
[2], log10 concentration (uM): 0.69897, ectopic expression: YAP S127A	0.617
[2], log10 concentration (uM): 0.69897, ectopic expression: empty vector (YAP experiment)	0.306
[2], log10 concentration (uM): 1, ectopic expression: YAP S127A	0.558
[2], log10 concentration (uM): 1, ectopic expression: empty vector (YAP experiment)	0.217
[2], log10 concentration (uM): 1.301029996, ectopic expression: YAP S127A	0.383
[2], log10 concentration (uM): 1.301029996, ectopic expression: empty vector (YAP experiment)	0.128
[2], log10 concentration (uM): -0.30103, ectopic expression: YAP S127A	0.942
[2], log10 concentration (uM): -0.30103, ectopic expression: empty vector (YAP experiment)	0.711
[2], log10 concentration (uM): -0.60206, ectopic expression: YAP S127A	0.958
[2], log10 concentration (uM): -0.60206, ectopic expression: empty vector (YAP experiment)	0.806
[2], log10 concentration (uM): -1, ectopic expression: YAP S127A	0.808
[2], log10 concentration (uM): -1, ectopic expression: empty vector (YAP experiment)	0.883
[2], log10 concentration (uM): -2, ectopic expression: YAP S127A	0.792
[2], log10 concentration (uM): -2, ectopic expression: empty vector (YAP experiment)	0.75
